Results reported in PMC7725003, “Systematically Studying the Optimal Amino Acid Distribution Patterns of the Amphiphilic Structure by Using the Ultrashort Amphiphiles” (Frontiers in Microbiology, 2020).
Where no end group is shown, it is not given here.

Assays:
P. aeruginosa ATCC 27853 = type: cell-based, Pseudomonas aeruginosa; details: after 30 passages in sub-MBC concentration
Protocol: Finally, P. aeruginosa ATCC 27853 was used as the model of the drug resistance study. […] The MBC values of the drugs against every two passage’s cells were tested. As a control, MBCs were also tested using cells that were serially passaged in fresh MHB without drugs. The assay was conducted independently in triplicate with three biological replicates.

E. coli ATCC 25922 = assay: Salt sensitivity assay (MIC); type: cell-based, Escherichia coli
In short: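 Peptides diluted serially in 0.2% BSA solution were combined at identical volumes with mid-logarithmic E. coli ATCC 25922 in MHB (0.5–1 × 10^6 CFU mL^–1) in 96-well plates, with or without a physiological salt. Plates were incubated for 24 h at 37°C. MIC was the lowest concentration inhibiting 95% of growth, measured as absorbance at 492 nm on a microplate reader.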

MRSA 43300 = type: cell-based, methicillin-resistant S. aureus; details: 43300, 24 h
In short: (§1)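 Broth microdilution in MHB with mid-log bacteria at 0.5–1 × 10^6 CFU/mL and peptides serially diluted in 0.2% BSA, 24 h at 37 °C. MIC is lowest concentration giving 95% growth inhibition by A492; MBC is lowest concentration killing >99.9% on overnight agar subculture.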

Gram-positive bacteria [1] = test system: Gram-positive bacteria
In short: (§2)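 MIC is the lowest peptide concentration giving 95% growth inhibition, read at 492 nm after 24 h incubation at 37°C. Peptides were serially diluted in 0.2% BSA and added to mid-logarithmic cells at 0.5–1 × 10^6 CFU mL^–1 in MHB, following a modified NCCLS method, with more than 3 repeats.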

Gram-negative bacteria [2] = test system: Gram-negative bacteria
In short: as §2

Gram-negative bacteria [3] = details: geometric mean of MBCs, 9 Gram-negative strains (Table 2)
S. typhimurium 7731 = type: cell-based, Salmonella typhimurium; details: 7731, 24 h
In short: as §1

S. typhimurium 14028 = type: cell-based, Salmonella typhimurium; details: 14028, 24 h
In short: as §1

P. aeruginosa 27853 = type: cell-based, Pseudomonas aeruginosa; details: 27853, 24 h
In short: as §1

[4] = test system: all of the tested bacterial strains; assay: Geometric mean of MICs, all tested bacterial strains; type: cell-based
In short: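 Per strain, MIC came from absorbance at 492 nm after 24 h at 37°C (≥95% inhibition), using mid-log inoculum of 0.5–1 × 10^6 CFU mL^–1 in MHB and peptide diluted in 0.2% BSA. MBC (>99.9% killed) came from overnight agar plating, and values are geometric means across strains.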

S. pullorum 7913 = type: cell-based, Salmonella pullorum; details: 7913, 24 h
In short: as §1

S. aureus 29213 [5] = assay: Salt sensitivity assay (MIC); type: cell-based, Staphylococcus aureus
In short: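 Physiological salts (150 mM NaCl, 4.5 mM KCl, 6 μM NH4Cl, 8 μM ZnCl2, 1 mM MgCl2, 2mM CaCl2, 4 μM FeCl3) added to MHB. Bacteria at 0.5–1 × 10^6 CFU/mL exposed to serially diluted peptides for 24 h at 37°C. MIC read as lowest peptide concentration giving 95% growth inhibition by absorbance at 492 nm.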

E. faecalis 29212 = type: cell-based, Enterococcus faecalis; details: 29212, 24 h
In short: as §1

Gram-positive bacteria [6] = details: geometric mean of MBCs, 7 Gram-positive strains (Table 2)
E. coli O78 = type: cell-based, Escherichia coli; details: O78, 24 h
In short: as §1

E. coli 25922 = type: cell-based, Escherichia coli; details: 25922, 24 h
In short: as §1

E. coli UB1005 = type: cell-based, Escherichia coli; details: UB1005, 24 h
In short: as §1

S. epidermidis 12228 = type: cell-based, Staphylococcus epidermidis; details: 12228, 24 h
In short: as §1

B. subtilis 63501 = type: cell-based, Bacillus subtilis; details: 63501, 24 h
In short: as §1

E. coli K88 = test system: E. coli K88
In short: (§3)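 Peptides were serially diluted in 0.2% BSA and added to mid-logarithmic cells diluted in MHB to 0.5–1 × 10^6 CFU mL^–1. Assays followed an adapted NCCLS protocol.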

E. coli K99 = test system: E. coli K99
In short: as §3

S. aureus 25923 = type: cell-based, Staphylococcus aureus; details: 25923, 24 h
In short: as §1

S. aureus 29213 [7] = type: cell-based, Staphylococcus aureus; details: 29213, 24 h
In short: as §1

[8] = test system: Listeria monocytogenes CGMCC 1.1075; type: cell-based; details: CGMCC 1.1075, 24 h
In short: as §1

[9] = no added salt, three independent assays
[10] = therapeutic index TI = MHC/GM MIC
[11] = MHB, 24 h 37°C, 95% growth inhibition
[12] = value in brackets, >99.9% of cells killed

With `CC(C)(O/N=C(\C(=O)N[C@@H]1C(=O)N2C(C(=O)[O-])=C(C[n+]3ccccc3)CS[C@H]12)c1csc(N)n1)C(=O)O` [ceftazidime, reference compound] the “increase of MBC value” (P. aeruginosa ATCC 27853) was 64 fold.
With RLRLRRLLL-NH2 [L9] the MIC, FeCl3 (E. coli ATCC 25922; 4 μM FeCl3) was 16 µM, the MIC, NH4Cl (E. coli ATCC 25922; 6 μM NH4Cl) was 32 µM and the MIC, ZnCl2 (E. coli ATCC 25922; 8 μM ZnCl2) was 16 µM. The MIC, MgCl2 (E. coli ATCC 25922; 1 mM MgCl2) was 32 µM, the MIC, CaCl2 (E. coli ATCC 25922; 2 mM CaCl2) was over 64 µM and the MIC, KCl (E. coli ATCC 25922; 4.5 mM KCl) was 16 µM. For the same compound, the MIC, NaCl (E. coli ATCC 25922; 150 mM NaCl) was over 64 µM, the MIC, Control (E. coli ATCC 25922; [9]) was 16 µM and the MIC (MRSA 43300) was over 64 µM. For the same compound, the “GM MIC” value (Gram-positive bacteria [1]; geometric mean of MICs, 7 Gram-positive strains (Table 2)) was 64.00 µM, the “TI, Gram-positive bacteria” value (Gram-positive bacteria [1]; [10]) was 4.00 and the “GM MIC” value (Gram-negative bacteria [2]; geometric mean of MICs, 9 Gram-negative strains (Table 2)) was 37.33 µM. The “TI, Gram-negative bacteria” value (Gram-negative bacteria [2]; [10]) was 6.86, the “GM MBC” value (Gram-negative bacteria [3]) was 69.12 µM and the MBC (S. typhimurium 7731) was 128 µM. It also gave an MIC (S. typhimurium 7731) of 64 µM, an MBC (S. typhimurium 14028) of 128 µM and an MIC (S. typhimurium 14028) of 64 µM. The MIC (P. aeruginosa 27853) was over 64 µM, the “GM, All” value ([4]; geometric mean of MICs across all tested strains) was 47.26 µM and the “TI, All” value [4, 10] was 5.42. For the same compound, the MBC (S. pullorum 7913) was 64 µM, the MIC (S. pullorum 7913) was 32 µM and the MIC, FeCl3 (S. aureus 29213 [5]; 4 μM FeCl3) was over 64 µM. It also gave an MIC, NH4Cl (S. aureus 29213 [5]; 6 μM NH4Cl) of over 64 µM, an MIC, ZnCl2 (S. aureus 29213 [5]; 8 μM ZnCl2) of over 64 µM and an MIC, MgCl2 (S. aureus 29213 [5]; 1 mM MgCl2) of over 64 µM. The MIC, CaCl2 (S. aureus 29213 [5]; 2 mM CaCl2) was over 64 µM, the MIC, KCl (S. aureus 29213 [5]; 4.5 mM KCl) was over 64 µM and the MIC, NaCl (S. aureus 29213 [5]; 150 mM NaCl) was over 64 µM. The MIC, Control (S. aureus 29213 [5]; [9]) was over 64 µM, the MIC (E. faecalis 29212) was over 64 µM and the “GM MBC” value (Gram-positive bacteria [6]) was 78.02 µM. The MBC (E. coli O78) was 64 µM, the MIC (E. coli O78) was 32 µM and the MBC (E. coli 25922) was 32 µM. The MIC (E. coli 25922) was 16 µM, the MBC (E. coli UB1005) was 128 µM and the MIC (E. coli UB1005) was 64 µM. It also gave an MIC (S. epidermidis 12228) of over 64 µM, an MBC (B. subtilis 63501) of 16 µM and an MIC (B. subtilis 63501) of 8 µM. For the same compound, the MIC (E. coli K88; [11]) was 16 µM, the MBC (E. coli K88; [12]) was 32 µM and the MIC (E. coli K99; [11]) was 16 µM. The MBC (E. coli K99; [12]) was 32 µM, the MIC (S. aureus 25923) was over 64 µM and the MIC (S. aureus 29213 [7]) was over 64 µM. It also gave an MBC [8] of 32 µM and an MIC [8] of 16 µM.
